Measured values published in PMC10066365, “Nemacol is a small molecule inhibitor of C. elegans vesicular acetylcholine transporter with anthelmintic potential” (Nature Communications, 2023).
“And” between values parts separate entries of the source, which are not always exact repeats. Identical values can stand only once. Like-named read-outs stand apart in the source and are kept apart here.

Tests used:
[1] = system: Dirofilaria immitis microfilariae; assay: Dirofilaria immitis microfilariae immobility assay (DiroImager, 72 h); conditions: Dirofilaria immitis microfilariae
Procedure: We conducted experiments with the Missouri isolate of Dirofilaria immitis in two labs. In the first set of experiments, shown as part of Fig. 3c, D. immitis microfilariae and larval stage 3 (L3) worms were assayed in the laboratories of Bayer Animal Health GmbH (Monheim, Germany). For microfilariae immobility assays, approximately 250 freshly purified microfilariae were cultured in single wells of a 96-well microtiter plate containing supplemented RPMI 1640 medium[68],[69]. […] Microfilariae exposed to medium substituted with 1% DMSO were used as negative controls. Motility of microfilariae was evaluated after 72 h of drug exposure using an image-based approach—DiroImager, developed by Bayer Technology Services. As described in detail in refs. [68],[69], the DiroImager is an automated high-throughput platform that allows for high-resolution optical imaging of an entire 96-well microtiter plate.

[2] = system: Dirofilaria immitis L3/L4; assay: Dirofilaria immitis L3/L4 motility assay (DiroImager, 72 h); conditions: Dirofilaria immitis L4
Pristionchus pacificus = Pristionchus pacificus motor disruption dose-response on solid media, 1 h; conditions: for mean % any phene (coiled, jerky-Unc or paralyzed): Pristionchus pacificus young adults, mean of three biological replicates; for EC50: Pristionchus pacificus, 1 h, read-out: P. pacificus motor disruption EC50
C. elegans = C. elegans motor phenotype scoring on solid media (Punc/jerky-unc, coiled, paralyzed), wild-type young adults; type: in vivo, Caenorhabditis elegans; conditions: for atypical locomotion (number of animals) / coiled (number of animals) / no phene (number of animals) / paralyzed (number of animals): young adults, 20 animals per trial; for EC50: Caenorhabditis elegans, read-out: C. elegans - motor disruption EC50
[3] = conc 3.75, observed at one hour
[4] = 3.75uM, one hour, mean of three biological replicates
[5] = 3.75uM, one hour, single replicate counts
[6] = 15uM, one hour, mean of three biological replicates
[7] = 15uM, one hour, single replicate counts
[8] = 60uM, one hour, mean of three biological replicates
[9] = 60uM, one hour, single replicate counts
[10] = 3.75uM, one hour, mean of three biological replicates, third c14 line of each analog
[11] = 15uM, one hour, mean of three biological replicates, second c14 line of each analog
[12] = 60uM, one hour, mean of three biological replicates, first c14 line of each analog
[13] = any motor phenotype after 1 h on solid media, ± 95% CI
[14] = 3.75uM, one hour, single technical replicate
[15] = 15uM, one hour, single technical replicate
[16] = 60uM, one hour, single technical replicate

Row | Structure (SMILES) | % effect (motility), DIROIM MF ([1]; 0.016 µM) [%] | % effect (motility), DIROIM MF ([1]; 0.08 µM) [%] | % effect (motility), DIROIM MF ([1]; 0.4 µM) [%] | % effect (motility), DIROIM MF ([1]; 2 µM) [%] | % effect (motility), DIROIM MF ([1]; 10 µM) [%] | % effect (motility), DIROIM L4 ([2]; 2 µM) [%] | % effect (motility), DIROIM L4 ([2]; 10 µM) [%] | % effect (motility), DIROIM L4 ([2]; 50 µM) [%] | mean % any phene (coiled, jerky-Unc or paralyzed) (Pristionchus pacificus; [3]) [%] | mean % any phene (coiled, jerky-Unc or paralyzed) (Pristionchus pacificus; conc 15, observed at one hour) [%] | mean % any phene (coiled, jerky-Unc or paralyzed) (Pristionchus pacificus; conc 60, observed at one hour) [%] | EC50 (Pristionchus pacificus) [µM] | any phene, mean % fraction of young adults exhibiting any phenotype (coiled, jerky-Unc or paralyzed) (C. elegans; [4]) [%] | atypical locomotion (number of animals) (C. elegans; [5]) | coiled (number of animals) (C. elegans; [5]) | no phene (number of animals) (C. elegans; [5]) | paralyzed (number of animals) (C. elegans; [5]) | any phene, mean % fraction of young adults exhibiting any phenotype (coiled, jerky-Unc or paralyzed) (C. elegans; [6]) [%] | atypical locomotion (number of animals) (C. elegans; [7]) | EC50 (C. elegans; [13]) [µM] | other results
1 | O=[N+]([O-])c1ccc(N2CCN(Cc3ccccc3)CC2)cc1 [Nemacol-6] | 0 | 0 | 0 | 0 | 0 | 5 | 6 | 20 | 0 | 1.667 | 23.3333 | > 60 | 0 | 0 | 0 | 20 | 0 | 7.5 | 1 and 0 and 2 and 5 |  | coiled (number of animals) (C. elegans; [7]): 0; no phene (number of animals) (C. elegans; [7]): 19 and 20 and 18 and 15; paralyzed (number of animals) (C. elegans; [7]): 0; any phene, mean % fraction of young adults exhibiting any phenotype (coiled, jerky-Unc or paralyzed) (C. elegans; [8]): 44.1667%; atypical locomotion (number of animals) (C. elegans; [9]): 5 and 3 and 4 and 19 and 13; coiled (number of animals) (C. elegans; [9]): 1 and 0 and 3; no phene (number of animals) (C. elegans; [9]): 14 and 17 and 12 and 16 and 1 and 7; paralyzed (number of animals) (C. elegans; [9]): 0; EC50 (C. elegans; 1 h): > 60 µM
2 | CN1CCN(c2ccc([N+](=O)[O-])cc2)CC1 [Nemacol-7] | 0 | 0 | 0 | 0 | 0 | 5 | 5 | 10 | 1.667 | 5 | 41.6667 | > 60 | 0 | 0 | 0 | 20 | 0 | 3.333 | 0 and 1 and 2 |  | coiled (number of animals) (C. elegans; [7]): 0; no phene (number of animals) (C. elegans; [7]): 20 and 19 and 18; paralyzed (number of animals) (C. elegans; [7]): 0; any phene, mean % fraction of young adults exhibiting any phenotype (coiled, jerky-Unc or paralyzed) (C. elegans; [8]): 14.1667%; atypical locomotion (number of animals) (C. elegans; [9]): 1 and 2 and 0 and 4 and 8; coiled (number of animals) (C. elegans; [9]): 0; no phene (number of animals) (C. elegans; [9]): 19 and 18 and 20 and 16 and 12; paralyzed (number of animals) (C. elegans; [9]): 0; EC50 (C. elegans; 1 h): > 60 µM
3 | CCN1CCN(c2ccc([N+](=O)[O-])cc2)CC1 [Nemacol-8] | 0 | 0 | 0 | 0 | 0 | 0 | 5 | 5 | 0 | 48.3333 | 81.6667 | 17.8 ± 3.7 | 0 | 0 | 0 | 20 | 0 | 0 | 0 |  | coiled (number of animals) (C. elegans; [7]): 0; no phene (number of animals) (C. elegans; [7]): 20; paralyzed (number of animals) (C. elegans; [7]): 0; any phene, mean % fraction of young adults exhibiting any phenotype (coiled, jerky-Unc or paralyzed) (C. elegans; [8]): 28.5965%; atypical locomotion (number of animals) (C. elegans; [9]): 4 and 3 and 1 and 5 and 8; coiled (number of animals) (C. elegans; [9]): 0 and 2 and 1; no phene (number of animals) (C. elegans; [9]): 16 and 17 and 13 and 15 and 11; paralyzed (number of animals) (C. elegans; [9]): 0 and 3 and 2 and 1; EC50 (C. elegans; 1 h): > 60 µM
4 | c1cc(N2CCN(CC3CCCCC3)CC2)ccn1 [Nemacol-22, 1-(cyclohexylmethyl)−4-(pyridin-4-yl)piperazine] | 0 | 0 | 0 | 0 | 0 | 0 | 0 | 10 |  |  |  |  |  |  |  |  |  |  |  | > 60 | any phene (mean % fraction of young adults exhibiting any phenotype: coiled, jerky-Unc or paralyzed) (C. elegans; [10]): 0%; any phene (mean % fraction of young adults exhibiting any phenotype: coiled, jerky-Unc or paralyzed) (C. elegans; [11]): 10.8333%; any phene (mean % fraction of young adults exhibiting any phenotype: coiled, jerky-Unc or paralyzed) (C. elegans; [12]): 24.1667%
5 | N#Cc1ccc(N2CCN(CC3CCCCC3)CC2)cc1 [Nemacol-24, 4-(4-(cyclohexylmethyl)piperazin-1-yl)benzonitrile] | 0 | 0 | 0 | 0 | 0 |  | 25 | 45 |  |  |  |  |  |  |  |  |  |  |  | 16.3 ± 10.5 | any phene (mean % fraction of young adults exhibiting any phenotype: coiled, jerky-Unc or paralyzed) (C. elegans; [10]): 8.333%; any phene (mean % fraction of young adults exhibiting any phenotype: coiled, jerky-Unc or paralyzed) (C. elegans; [11]): 45.8333%; any phene (mean % fraction of young adults exhibiting any phenotype: coiled, jerky-Unc or paralyzed) (C. elegans; [12]): 91.6667%
6 | O=[N+]([O-])c1ccc(N2CCN(CC3CC3)CC2)cc1 [Nemacol-28, 1-(cyclopropylmethyl)−4-(4-nitrophenyl)piperazine] | 0 | 0 | 0 | 0 | 0 | 5 | 5 | 15 |  |  |  |  |  |  |  |  |  |  |  | > 60 | any phene (mean % fraction of young adults exhibiting any phenotype: coiled, jerky-Unc or paralyzed) (C. elegans; [10]): 0%; any phene (mean % fraction of young adults exhibiting any phenotype: coiled, jerky-Unc or paralyzed) (C. elegans; [11]): 4.167%; any phene (mean % fraction of young adults exhibiting any phenotype: coiled, jerky-Unc or paralyzed) (C. elegans; [12]): 32.5%
7 | Clc1ccc(N2CCN(C3CCCCCC3)CC2)cc1 [Nemacol-57] | 0 | 0 | 0 | 0 | 0 |  | 10 | 15 |  |  |  |  |  |  |  |  |  |  |  | 2.3 | atypical locomotion (number of animals) (C. elegans; [14]): 12 and 13 and 15; coiled (number of animals) (C. elegans; [14]): 3 and 1 and 2 and 7; no phene (number of animals) (C. elegans; [14]): 0 and 2 and 3; paralyzed (number of animals) (C. elegans; [14]): 5 and 4 and 1 and 0; any phene: mean % fraction of young adults exhibiting any phenotype (coiled, jerky-Unc or paralyzed) (C. elegans; [4]): 92.5%; atypical locomotion (number of animals) (C. elegans; [15]): 0 and 2 and 4 and 6; coiled (number of animals) (C. elegans; [15]): 17 and 15 and 14 and 10 and 11; no phene (number of animals) (C. elegans; [15]): 0; paralyzed (number of animals) (C. elegans; [15]): 3 and 4 and 0 and 6; atypical locomotion (number of animals) (C. elegans; [16]): 0 and 2 and 1; coiled (number of animals) (C. elegans; [16]): 14 and 13 and 12 and 18 and 11; no phene (number of animals) (C. elegans; [16]): 0; paralyzed (number of animals) (C. elegans; [16]): 6 and 5 and 7 and 2 and 8
